These results are taken from patent publication US9540380B2, “Imidazotriazinone compounds” (Ironwood Pharmaceuticals, Inc., priority 2010, dated 2017).

The assay deals with T1, PDE9A2 (Homo sapiens, UniProt O76083).
T1 construct: purchased Reaction Biology Corporation, Malvern, Pa
The assay is described as follows: Phosphodiesterase Enzyme Screening Assay, PDE9A2 (Caliper LabChip mobility-shift). Type of assay: biochemical. Particulars: 10 concentrations, 4.0 μM cGMP substrate, 1 hour at R.T.; read-out: Band (PDE9A2 IC50). From the text: Compounds of the invention were screened against PDE1A, PDE1B, PDE2A, PDE3A, PDE3B, PDE4A1A, PDE4B1, PDE4D3, PDE5A1, PDE6C, PDE7A, PDE8A1, PDE9A2, PDE10A2 AND PDE11A isoforms of the phosphodiesterase enzyme to determine activity and overall selectivity through comparative analysis. The assay generally consists of testing the compounds of the invention at 10 concentrations. Where 8-methoxy-IBMX and Zaprinast were used as reference inhibitors.
The phosphodiesterase enzyme isoforms were obtained from a commercial retailer (Reaction Biology Corporation, Malvern, Pa.) for use in the instant screening assay.
The analysis was completed using the Caliper LabChip 3000 and a 12-sipper LabChip. LabChip assays are separations-based, meaning that the product and substrate are electrophoretically separated, thereby minimizing interferences and yielding the highest data quality available on any screening platform. Z′ factors for both the EZ Reader and LC3000 enzymatic assays are routinely in the 0.8 to 0.9 range. High Z′ values, few false positives, few false negatives and analytical quality reproducibility are the reasons cited for the increasing reliance on the LabChip assays.
The off-chip incubation mobility-shift phosphodiesterase assay uses a microfluidic chip to measure the conversion of a fluorescent cyclic AMP substrate to a 5′-AMP product, or a cyclic GMP substrate to a 5′-GMP product. The reaction mixture, from a microtiter plate well, is introduced through a capillary sipper onto the chip, where the fluorescent substrate and product are separated by electrophoresis and detected via laser-induced fluorescence. […] The precision of microfluidics allows researchers to detect subtle interactions between drug candidates and therapeutic targets. The technology is able to detect both strong and weak inhibitors with high accuracy, and routinely identifies drug candidates that conventional techniques miss.
Reactions were carried out in 100 mM HEPES (pH 7.5), 5 mM MgCl2, 1 mM DTT, 0.003% Brij, 4.0 μM cGMP substrate. The reaction was started by addition of cGMP or cAMP and incubated for 1 hour at R.T. The reaction was terminated by the addition of stop buffer containing 100 mM HEPES (pH 7.5), 15 mM EDTA, 0.015% Brij-35, 5% DMSO. Cyclic AMP/GMP substrate and 5′-AMP/5′-GMP product were separated by charge using electrophoretic mobility shift. Product formed was compared to control wells to determine inhibition or enhancement of enzyme activity.
One or more reference compounds, depending on phosphodiesterase isoform, selected from 8-methoxy-IBMX, Zaprinast, Trequinsin, Pentoxifyline, Rolipram, and Vinpocetine, Dipyridamole, and BRL-50481 were run alongside client samples to ensure data quality. The resulting IC50 is compared against the historical average and must be within 3-fold of this average.
Data points were averages of quadruplicate wells and error bars represented the SEM for each point. IC50s were determined using GraphPad Prism Version 5.01 and the log (inhibitor) vs. response variable slope curve fit.

T1 sequence (O76083 1-533 isoform O76083-2): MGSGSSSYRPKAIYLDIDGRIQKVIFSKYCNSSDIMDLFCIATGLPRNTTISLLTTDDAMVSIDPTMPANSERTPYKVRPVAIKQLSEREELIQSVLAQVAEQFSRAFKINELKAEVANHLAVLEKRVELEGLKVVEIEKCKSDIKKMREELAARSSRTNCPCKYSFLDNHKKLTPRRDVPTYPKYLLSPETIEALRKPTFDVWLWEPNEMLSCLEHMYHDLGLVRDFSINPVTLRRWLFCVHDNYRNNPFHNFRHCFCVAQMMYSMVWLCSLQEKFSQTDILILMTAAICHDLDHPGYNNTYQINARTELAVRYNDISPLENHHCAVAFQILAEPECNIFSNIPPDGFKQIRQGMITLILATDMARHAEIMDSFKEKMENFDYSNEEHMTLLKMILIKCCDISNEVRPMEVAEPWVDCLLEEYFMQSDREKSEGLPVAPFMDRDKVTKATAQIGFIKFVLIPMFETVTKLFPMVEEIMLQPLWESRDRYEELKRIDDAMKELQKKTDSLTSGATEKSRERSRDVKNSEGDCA

The IC50 is the concentration at which inhibition is half-maximal. For the molecule `C[C@@H]1CN(Cc2ccc3nccn3n2)C[C@H]1c1nn2c(C3CCOCC3)ncc2c(=O)[nH]1` (single isomer, unassigned) [(+)-2-((3,4-trans)-1-(imidazo[1,2-b]pyridazin-6-ylmethyl)-4-methylpyrrolidin-3-yl)-7-(tetrahydro-2H-pyran-4-yl)imidazo[5,1-f][1,2,4]triazin-4(3H)-one], the IC50 is < 1 µM.

As for `C[C@@H]1CN(Cc2cnccn2)C[C@H]1c1nn2c(C3CCOCC3)ncc2c(=O)[nH]1` (single isomer, unassigned) [(−)-2-((3,4-trans)-4-methyl-1-(pyrazin-2-ylmethyl)pyrrolidin-3-yl)-7-(tetrahydro-2H-pyran-4-yl)imidazo[5,1-f][1,2,4]triazin-4(3H)-one], the IC50 was 1 to 10 µM. With `C[C@@H]1CN(Cc2ccccc2)C[C@H]1c1nn2c(-c3ccoc3)ncc2c(=O)[nH]1` (single isomer, unassigned) [(−)-2-((3,4-trans)-1-benzyl-4-methylpyrrolidin-3-yl)-7-(furan-3-yl)imidazo[5,1-f][1,2,4]triazin-4(3H)-one], the IC50 lay in the range of 1 to 10 µM. Next, `Cc1cc(F)ccc1-c1ncc2c(=O)[nH]c([C@@H]3CN(Cc4ccccc4)C[C@H]3C)nn12` (single isomer, unassigned) [(−)-2-((3,4-trans)-1-benzyl-4-methylpyrrolidin-3-yl)-7-(4-fluoro-2-methylphenyl)imidazo[5,1-f][1,2,4]triazin-4(3H)-one]: > 10 µM. Next, `C[C@@H]1CN(Cc2ncc3ccccc3n2)C[C@H]1c1nn2c(C3CCOCC3)ncc2c(=O)[nH]1` (single isomer, unassigned) [(+)-2-((3,4-trans)-4-methyl-1-(quinazolin-2-ylmethyl)pyrrolidin-3-yl)-7-(tetrahydro-2H-pyran-4-yl)imidazo[5,1-f][1,2,4]triazin-4(3H)-one]: < 1 µM; `C[C@@H]1CN(Cc2ccccn2)C[C@H]1c1nn2c(C3CCOCC3)ncc2c(=O)[nH]1` (single isomer, unassigned) [(+)-2-((3,4-trans)-4-methyl-1-(pyridin-2-ylmethyl)pyrrolidin-3-yl)-7-(tetrahydro-2H-pyran-4-yl)imidazo[5,1-f][1,2,4]triazin-4(3H)-one]: < 1 µM. On to `C[C@@H]1CN(Cc2ncc3ccccc3n2)C[C@H]1c1nn2c(C3CCOCC3)ncc2c(=O)[nH]1` (single isomer, unassigned) [(−)-2-((3,4-trans)-4-methyl-1-(quinazolin-2-ylmethyl)pyrroli] [(−)-2-((3,4-trans)-4-methyl-1-(quinazolin-2-ylmethyl)pyrrolidin-3-yl)-7-(tetrahydro-2H-pyran-4-yl)imidazo[5,1-f][1,2,4]triazin-4(3H)-one], for which the IC50 is < 1 µM. As to `C[C@@H]1CN(Cc2cn3ncccc3n2)C[C@H]1c1nn2c(C3CCOCC3)ncc2c(=O)[nH]1` (single isomer, unassigned) [(+)-2-((3,4-trans)-1-(imidazo[1,2-b]pyridazin-2-ylmethyl)-4-methylpyrrolidin-3-yl)-7-(tetrahydro-2H-pyran-4-yl)imidazo[5,1-f][1,2,4]triazin-4(3H)-one], the IC50 is < 1 µM. Next, `C[C@@H]1CN(Cc2cn3ncccc3n2)C[C@H]1c1nn2c(C3CCOCC3)ncc2c(=O)[nH]1` (single isomer, unassigned) [(−)-2-((3,4-trans)-1-(imidazo[1,2-b]pyridazin-2-ylmethyl)-4-] [(−)-2-((3,4-trans)-1-(imidazo[1,2-b]pyridazin-2-ylmethyl)-4-methylpyrrolidin-3-yl)-7-(tetrahydro-2H-pyran-4-yl)imidazo[5,1-f][1,2,4]triazin-4(3H)-one]: < 1 µM. Next, `COc1cccc(CN2C[C@@H](C)[C@H](c3nn4c(C5CCOCC5)ncc4c(=O)[nH]3)C2)n1` (single isomer, unassigned) [(+)-2-((3,4-trans)-1-((6-methoxypyridin-2-yl)methyl)-4-methylpyrrolidin-3-yl)-7-(tetrahydro-2H-pyran-4-yl)imidazo[5,1-f][1,2,4]triazin-4(3H)-one]: < 1 µM.
